From patent publication US5804555A, “Antioxidant” (Morinaga Milk Industry Co., Ltd., priority 1992, dated 1998)

What was measured:
[1] = Test 2: inducing period of linoleic acid oxidation (days until absorbance of 0.2 is exceeded); type: biochemical; settings: single addition, final concentration 0.1% in linoleic acid
Method: The following 11 kinds of sample were prepared.
Sample 2: A sample prepared by adding a hydrolysate of lactoferrin (prepared by the same method as in the Example 2) to linoleic acid to achieve a final concentration of 0.1%;
Sample 3: A sample prepared by adding peptides (prepared by the same method as in the Example 3) to linoleic acid to achieve a final concentration of 0.1%;
Sample 4: A sample prepared by adding vitamin E (dl-α tocopherol the same one as in the Test 1) to linoleic acid to achieve a final concentration of 0.1%;
Sample 5: A sample prepared by adding superoxide dismutase (manufactured by Sigma Company) to linoleic acid to achieve a final concentration of 0.1%;
Sample 6: A sample prepared by adding β-carotene (manufactured by Nakaraitesk Company) to linoleic acid to achieve a final concentration of 0.1%;
Sample 7: A sample prepared by adding vitamin C (manufactured by Nakaraitesk Company) to linoleic acid to achieve a final concentration of 0.1%; […]
Absorbance was measured by the same method as in the Test 1, and with the number of days until an absorbance of 0.2 is exceeded as the inducing period, antioxidant effect was tested.

[2] = Test 1: antioxidant effect on linoleic acid, peroxides by ferric thiocyanate method; type: biochemical; settings: 0.2% added to linoleic acid, 60° C.
Method: A sample was prepared by adding dl-α tocopherol (manufactured by Wako Jun-yaku Kogyo Company), bovine lactoferrin (manufactured by Sigma Company), hydrolysate of lactoferrin (prepared by the same method as in the Example 2), or peptide (prepared by the same method as in the Example 3) to a final concentration of 0.2% (weight percentage; same applies hereafter except for the degree of decomposition) to commercially available linoleic acid (manufactured by Wako Jun-Yaku Kogyo Company) containing no additive. Hereafter, the thus prepared samples are individually referred to as […].
Antioxidant effect of the individual samples was tested by the method of Mitsuda et al.(Eiyo to Shokuryo, Vol. 19, p. 210, 1966) described below.
The above-mentioned samples were added to a mixed solution containing 10 ml of ethanol, 10 ml of 0.1M phosphate buffer solution (pH: 7.0), and 5 ml of deionized water so as to achieve a final concentration of linoleic acid of […](mol/l). This solution was placed in a vial bottle having a capacity of 50 ml, and the closely plugged bottle was held in an incubator at 60° C. The total volume was always adjusted to 25 ml by reducing the above-mentioned ionized water, depending upon the quantity of added sample. At prescribed time intervals, 0.1 ml was sampled from this vial bottle to measure the quantity of peroxides by the following ferric thiocyanate method.
To the sample solution in an amount of 0.1 ml, 4.7 ml of 75% ethanol, 0.1 ml of 30% ammonium rhodanide, and 0.1 ml of 3.5% hydrochloric acid solution of 2×10^-2 M ferrous chloride were added, and absorbance at 500 nm was measured upon the lapse of just three minutes.

| Compound | Inducing period [1] | Degree of peroxidation (absorbance at 500 nm) ([2]; period of preservation 0 days) | Degree of peroxidation (absorbance at 500 nm) ([2]; period of preservation 3 days) | Degree of peroxidation (absorbance at 500 nm) ([2]; period of preservation 6 days) | Degree of peroxidation (absorbance at 500 nm) ([2]; period of preservation 10 days) | Degree of peroxidation (absorbance at 500 nm) ([2]; period of preservation 13 days) |
| --- | --- | --- | --- | --- | --- | --- |
| O=C1O[C@H]([C@@H](O)CO)C(O)=C1O [Vitamin C, ascorbic acid] | 8 days |  |  |  |  |  |
| Superoxide dismutase | 10 days |  |  |  |  |  |
| Cc1c(C)c2c(c(C)c1O)CCC(C)(CCCC(C)CCCC(C)CCCC(C)C)O2 (racemic) [Sample 2, dl-α tocopherol] | 8 days | 0 | 0.19 | 0.16 | 0.16 | 0.21 |
| CC1=C(/C=C/C(C)=C/C=C/C(C)=C/C=C/C=C(C)/C=C/C=C(C)/C=C/C2=C(C)CCCC2(C)C)C(C)(C)CCC1 [β-carotene] | 14 days |  |  |  |  |  |
